ChEMBL document CHEMBL5223174, “Design, synthesis, and biological evaluation of novel N-Benzyl piperidine derivatives as potent HDAC/AChE inhibitors for Alzheimer's disease” (Bioorg Med Chem, 2023)

Experiments:
Histone deacetylase = type: cell-based, Homo sapiens; settings: hela
Description: Inhibition of HDAC in human HeLa cell extracts

Acetylcholinesterase = Acetylcholinesterase (Electrophorus electricus, UniProt O42275); assay: Inhibition of electric eel AChE
Cholinesterase = Cholinesterase (Equus caballus, UniProt P81908); assay: Inhibition of equine serum BChE; type: cell-free
[1] = Selectivity index, ratio of IC50 for equine serum BChE to IC50 for electric eel AChE

Chain of Acetylcholinesterase (O42275 whole entry): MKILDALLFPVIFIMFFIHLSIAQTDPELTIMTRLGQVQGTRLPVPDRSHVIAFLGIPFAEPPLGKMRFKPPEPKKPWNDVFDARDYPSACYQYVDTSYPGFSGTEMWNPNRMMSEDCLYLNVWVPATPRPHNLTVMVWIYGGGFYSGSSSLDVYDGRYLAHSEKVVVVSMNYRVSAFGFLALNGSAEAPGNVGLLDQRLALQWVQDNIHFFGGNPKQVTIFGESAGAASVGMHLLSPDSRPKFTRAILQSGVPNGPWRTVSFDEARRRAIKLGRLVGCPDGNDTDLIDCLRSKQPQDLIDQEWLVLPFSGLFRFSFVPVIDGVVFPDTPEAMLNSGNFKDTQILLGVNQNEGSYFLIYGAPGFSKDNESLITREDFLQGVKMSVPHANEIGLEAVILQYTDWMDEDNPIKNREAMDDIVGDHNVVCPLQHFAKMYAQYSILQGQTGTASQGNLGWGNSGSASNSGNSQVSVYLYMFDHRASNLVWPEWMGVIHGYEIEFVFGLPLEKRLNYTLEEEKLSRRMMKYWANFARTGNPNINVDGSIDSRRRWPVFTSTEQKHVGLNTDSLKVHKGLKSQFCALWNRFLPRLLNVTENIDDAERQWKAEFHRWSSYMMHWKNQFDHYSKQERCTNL
Chain of Cholinesterase (P81908 whole entry): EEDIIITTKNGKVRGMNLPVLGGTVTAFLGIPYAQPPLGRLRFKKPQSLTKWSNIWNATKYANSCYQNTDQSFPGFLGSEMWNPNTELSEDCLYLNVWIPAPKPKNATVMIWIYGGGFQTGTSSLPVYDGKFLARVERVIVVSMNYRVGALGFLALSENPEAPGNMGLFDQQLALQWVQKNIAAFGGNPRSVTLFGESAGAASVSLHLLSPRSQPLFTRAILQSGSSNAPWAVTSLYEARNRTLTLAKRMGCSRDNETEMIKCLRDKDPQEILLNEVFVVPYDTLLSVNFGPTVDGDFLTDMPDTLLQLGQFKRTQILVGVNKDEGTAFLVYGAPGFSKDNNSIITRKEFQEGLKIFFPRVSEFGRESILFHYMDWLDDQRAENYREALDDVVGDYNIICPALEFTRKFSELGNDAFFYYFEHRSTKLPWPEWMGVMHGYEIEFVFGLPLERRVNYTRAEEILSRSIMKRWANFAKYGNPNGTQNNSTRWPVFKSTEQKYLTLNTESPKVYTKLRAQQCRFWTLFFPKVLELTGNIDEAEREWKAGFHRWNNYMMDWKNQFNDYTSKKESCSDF

| Structure (SMILES) | IC50 (Histone deacetylase) [µM] | IC50 (Acetylcholinesterase; read-out: IC50) [µM] | IC50 (Cholinesterase; read-out: IC50) [µM] | IC50 (Cholinesterase) | IC50 (Acetylcholinesterase) | Ratio IC50 [1] |
| --- | --- | --- | --- | --- | --- | --- |
| Nc1ccccc1NC(=O)c1ccc(CNCC2CCN(Cc3ccccc3)CC2)cc1 | > 10 | 9.84 | 12.6 | – | – | – |
| Nc1ccccc1NC(=O)c1cccc(C(=O)NCC2CCN(Cc3ccccc3)CC2)c1 | 2.13 | 32.6 | 7.96 | – | – | – |
| Nc1ccccc1NC(=O)c1ccc(CCC(=O)NCC2CCN(Cc3ccccc3)CC2)cc1 | > 10 | 12.4 | – | Not Active | – | – |
| Nc1ccccc1NC(=O)/C=C/c1cccc(C(=O)NCC2CCN(Cc3ccccc3)CC2)c1 | 1.62 | – | – | Not Active | Not Active | – |
| COc1cc(CCC(=O)NO)ccc1C(=O)NCC1CCN(Cc2ccccc2)CC1 | 0.17 | 6.89 | – | Not Active | – | > 10 |
| Nc1ccccc1NC(=O)CCc1ccc(C(=O)NCC2CCN(Cc3ccccc3)CC2)cc1 | 0.46 | 9.13 | 13.4 | – | – | – |
| Nc1ccccc1NC(=O)CCCCCCC(=O)NCC1CCN(Cc2ccccc2)CC1 | > 10 | – | – | Not Active | Not Active | – |
| O=C(NO)c1ccc(C(=O)NCC2CCN(Cc3ccccc3)CC2)cc1 | 0.14 | 39.7 | 3.28 | – | – | – |
| O=C(CCCCCCC(=O)NCC1CCN(Cc2ccccc2)CC1)NO | 0.59 | – | 1.62 | – | Not Active | – |
| O=C(CCc1ccc(C(=O)NCC2CCN(Cc3ccccc3)CC2)cc1)NO | 1 | – | – | Not Active | Not Active | – |
| O=C(/C=C/c1ccc(C(=O)NO)cc1)NCC1CCN(Cc2ccccc2)CC1 | 2.1 | 4.07 | – | Not Active | – | > 10 |
| COc1cc(CCC(=O)Nc2ccccc2N)ccc1C(=O)NCC1CCN(Cc2ccccc2)CC1 | > 10 | 31.3 | 10.6 | – | – | – |
| O=C(NO)c1cccc(S(=O)(=O)NCC2CCN(Cc3ccccc3)CC2)c1 | 6.8 | 19.2 | – | Not Active | – | – |
| COc1cc(/C=C/C(=O)Nc2ccccc2N)ccc1C(=O)NCC1CCN(Cc2ccccc2)CC1 | 1.25 | 8.89 | 6.56 | – | – | – |
| Nc1ccccc1NC(=O)CCCCCCCC(=O)NCC1CCN(Cc2ccccc2)CC1 | 1.14 | 11.5 | 13.8 | – | – | – |
| COc1cc(/C=C/C(=O)NO)ccc1C(=O)NCC1CCN(Cc2ccccc2)CC1 | 0.02 | 24.6 | 25.2 | – | – | – |

| Structure (SMILES) | IC50 (Histone deacetylase) [µM] | IC50 (Acetylcholinesterase; read-out: IC50) [µM] | IC50 (Cholinesterase; read-out: IC50) [µM] | IC50 (Cholinesterase) | IC50 (Acetylcholinesterase) | Ratio IC50 [1] |
| --- | --- | --- | --- | --- | --- | --- |
| O=C(/C=C/c1cccc(C(=O)NCC2CCN(Cc3ccccc3)CC2)c1)NO | 0.067 | 14.6 | – | Not Active | – | – |
| O=C(CCCCCC(=O)NCC1CCN(Cc2ccccc2)CC1)NO | > 10 | 32.8 | – | Not Active | – | – |
| Nc1ccccc1NC(=O)c1cccc(S(=O)(=O)NCC2CCN(Cc3ccccc3)CC2)c1 | 1.28 | 7.41 | 5.23 | – | – | – |
| O=C(NO)c1cccc(C(=O)NCC2CCN(Cc3ccccc3)CC2)c1 | 0.8 | – | – | Not Active | Not Active | – |
| Nc1ccccc1NC(=O)CCCCCC(=O)NCC1CCN(Cc2ccccc2)CC1 | > 10 | 7.06 | 6.19 | – | – | – |
| Nc1ccccc1NC(=O)/C=C/c1ccc(C(=O)NCC2CCN(Cc3ccccc3)CC2)cc1 | 0.18 | 13.8 | – | Not Active | – | – |
| O=C(CCc1ccc(C(=O)NO)cc1)NCC1CCN(Cc2ccccc2)CC1 | > 10 | – | – | Not Active | Not Active | – |
| O=C(CCCCCCCC(=O)NCC1CCN(Cc2ccccc2)CC1)NO | 0.43 | 26.2 | 13.7 | – | – | – |
| O=C(/C=C/c1ccc(C(=O)NCC2CCN(Cc3ccccc3)CC2)cc1)NO | 0.28 | 8.18 | – | Not Active | – | > 10 |
| Nc1ccccc1NC(=O)c1ccc(S(=O)(=O)NCC2CCN(Cc3ccccc3)CC2)cc1 | > 10 | 0.49 | – | Not Active | – | > 102 |
| O=C(NO)c1ccc(S(=O)(=O)NCC2CCN(Cc3ccccc3)CC2)cc1 | 0.45 | 3.22 | – | Not Active | – | > 10 |
| Nc1ccccc1NC(=O)c1ccc(/C=C/C(=O)NCC2CCN(Cc3ccccc3)CC2)cc1 | > 10 | 2.12 | 15.6 | – | – | > 10 |
| Nc1ccccc1NC(=O)CCc1cccc(C(=O)NCC2CCN(Cc3ccccc3)CC2)c1 | 1.2 | 9.97 | 9.49 | – | – | – |
| O=C(NO)c1ccc(CNCC2CCN(Cc3ccccc3)CC2)cc1 | 1.42 | 6.03 | 13.2 | – | – | – |
| O=C(CCc1cccc(C(=O)NCC2CCN(Cc3ccccc3)CC2)c1)NO | 0.47 | – | – | Not Active | Not Active | – |
